Experimental data published in US20250129135A1, “Multi-Agonist and Use Thereof” (priority 2021, published 2025).
Starred links: 1 amine or outer side, 2 acyl side, 3 side chain; linkers in the order of their positions; H or OH if unused. Non-standard residues stand in square brackets, D forms with d. Residues, ends and D or L forms follow the SMILES beside them. Groups on a side chain read outwards from the residue. *: point of attachment. C20 diacid = O=C(O)CCCCCCCCCCCCCCCCCCC(=O)*; αMePhe(2-F) = C[C@](N)(Cc1ccccc1F)C(=O)O; γGlu = O=C(O)[C@H](CCC(=O)[*:2])N[*:1]; αMeF = C[C@](N)(Cc1ccccc1)C(=O)O; αMeL = CC(C)C[C@](C)(N)C(=O)O; AEEA = NCCOCCOCC(=O)O; Ac3c = NC1(C(=O)O)CC1; Aib = CC(C)(N)C(=O)O

Tests used:
[1] = biological target: T1, Human GIP R (Homo sapiens, UniProt P48546); experiment: cAMP (HTRF) activity in CHO cells stably overexpressing GIP receptor; assay type: cell-based; conditions: for Human GIP R Rel. A (Relative Activity): EC50 of human GIP / EC50 of compound; for EC50: stable transfected cell cAMP activity, at least 3 independent tests
T1 construct: expressed in transfected cells; host or cells: CHO
T1 sequence (P48546 22-466): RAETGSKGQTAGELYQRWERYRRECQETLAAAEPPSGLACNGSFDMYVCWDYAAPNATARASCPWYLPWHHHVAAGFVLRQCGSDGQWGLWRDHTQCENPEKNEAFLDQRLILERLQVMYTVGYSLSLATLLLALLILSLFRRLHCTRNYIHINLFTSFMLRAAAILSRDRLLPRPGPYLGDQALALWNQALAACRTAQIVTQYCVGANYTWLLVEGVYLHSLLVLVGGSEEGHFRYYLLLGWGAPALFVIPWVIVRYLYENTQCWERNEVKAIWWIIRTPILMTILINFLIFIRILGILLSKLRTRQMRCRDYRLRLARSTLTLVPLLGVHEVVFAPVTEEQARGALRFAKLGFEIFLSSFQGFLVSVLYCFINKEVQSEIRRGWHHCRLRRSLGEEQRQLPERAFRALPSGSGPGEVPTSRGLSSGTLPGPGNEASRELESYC
Method in brief: (§1)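 Agonism was assessed from intracellular cAMP by HTRF. Cells resuspended in HBSS were treated with compound for 60 minutes at room temperature, then with detection reagent for a further 60 minutes. EC50 (nM) values came from concentration–response curves.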

[2] = biological target: T2, Human GCG R (Homo sapiens, UniProt P47871); experiment: cAMP (HTRF) activity in HEK-293 cells stably overexpressing human GCG receptor; assay type: cell-based; conditions: EC50 of human GCG / EC50 of compound
T2 construct: expressed in transfected cells; host or cells: HEK-293
Method in brief: as §1

[3] = system: RIN-m5F cells; assay type: cell-based, rat; conditions: for Rel. A (Relative Activity) on RIN-m5F: relative to GLP-1(7-37)
Method in brief: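 cAMP production measured in RIN-m5F cells resuspended in HBSS; compounds incubated 60 min at room temperature, then detection reagent added for a further 60 min before read-out.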

[4] = system: 3T3-L1 adipocytes; conditions: for Rel. A (Relative Activity) on 3T3-L1 adipocyte: relative to GIP
Method in brief: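 Mouse 3T3-L1 preadipocytes were differentiated with IBMX, dexamethasone and insulin for 5 days, then insulin plus 10 uM rosiglitazone for 3 days, then 10% FBS medium for 2–3 days. Mature adipocytes received 10-point, 3-fold compound dilutions for 60 min at room temperature. cAMP was read by kit detection reagent after a further 60 min, with concentration-effect curves fitted.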

[5] = system: human primary liver cells; assay type: cell-based; conditions: for Rel. A (Relative Activity) on human primary liver cells: relative to GCG
Method in brief: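 Human primary hepatocytes, thawed at 37° C and resuspended in HBSS, exposed to compound for 60 min at room temperature. Detection reagent then added for 60 min before cAMP readout.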

[6] = biological target: Human GLP-1R (Homo sapiens, UniProt P43220); experiment: cAMP (HTRF) activity in HEK-293 cells stably overexpressing human GLP-1 receptor; assay type: cell-based; design: expressed in transfected cells; host or cells: HEK-293; conditions: for Human GLP-1R Rel. A (Relative Activity): EC50 of human GLP-1 (7-37) / EC50 of compound; for EC50: stable transfected cell cAMP activity, at least 3 independent tests
Method in brief: as §1

T2 sequence (P47871 26-477): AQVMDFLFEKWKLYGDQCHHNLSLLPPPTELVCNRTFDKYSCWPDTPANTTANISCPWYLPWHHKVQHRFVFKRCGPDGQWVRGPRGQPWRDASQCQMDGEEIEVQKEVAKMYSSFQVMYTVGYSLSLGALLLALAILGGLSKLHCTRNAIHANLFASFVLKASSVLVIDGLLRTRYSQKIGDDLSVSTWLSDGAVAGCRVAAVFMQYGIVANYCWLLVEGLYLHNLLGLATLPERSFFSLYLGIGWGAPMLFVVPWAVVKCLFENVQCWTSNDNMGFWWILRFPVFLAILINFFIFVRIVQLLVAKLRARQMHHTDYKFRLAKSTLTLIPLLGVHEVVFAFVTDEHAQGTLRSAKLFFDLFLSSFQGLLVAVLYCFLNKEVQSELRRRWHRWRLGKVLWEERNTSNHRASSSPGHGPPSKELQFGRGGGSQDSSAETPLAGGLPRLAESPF
Sequence of Human GLP-1R (P43220 24-463): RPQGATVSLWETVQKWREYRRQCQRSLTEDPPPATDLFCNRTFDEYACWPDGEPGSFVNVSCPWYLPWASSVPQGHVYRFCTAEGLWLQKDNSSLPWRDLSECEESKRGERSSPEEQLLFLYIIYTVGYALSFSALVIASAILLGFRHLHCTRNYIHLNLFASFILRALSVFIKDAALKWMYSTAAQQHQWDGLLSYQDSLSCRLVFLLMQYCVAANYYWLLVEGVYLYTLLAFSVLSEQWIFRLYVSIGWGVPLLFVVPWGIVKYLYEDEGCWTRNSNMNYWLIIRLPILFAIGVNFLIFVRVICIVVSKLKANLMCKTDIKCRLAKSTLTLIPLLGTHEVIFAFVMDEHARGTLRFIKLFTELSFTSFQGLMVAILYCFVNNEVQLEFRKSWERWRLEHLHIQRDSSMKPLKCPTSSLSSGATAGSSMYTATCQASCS

| SMILES | Human GIP R Rel. A (Relative Activity) [1] | EC50 [1] | Human GCG R Rel. A (Relative Activity) [2] | EC50 [3] | Rel. A (Relative Activity) on RIN-m5F [3] | EC50 [4] | Rel. A (Relative Activity) on 3T3-L1 adipocyte [4] | EC50 [5] | Rel. A (Relative Activity) on human primary liver cells [5] | Human GLP-1R Rel. A (Relative Activity) [6] | EC50 [6] |
| --- | --- | --- | --- | --- | --- | --- | --- | --- | --- | --- | --- |
| CC[C@H](C)[C@H](NC(=O)[C@H](Cc1ccccc1)NC(=O)[C@H](C)NC(=O)C(C)(C)NC(=O)[C@H](CCC(N)=O)NC(=O)[C@H](C)NC(=O)[C@H](CCCCNC(=O)COCCOCCNC(=O)COCCOCCNC(=O)CC[C@H](NC(=O)CCCCCCCCCCCCCCCCCCC(=O)O)C(=O)O)NC(=O)[C@H](CCCCN)NC(=O)[C@H](CC(=O)O)NC(=O)[C@H](CC(C)C)NC(=O)[C@](C)(CC(C)C)NC(=O)[C@@H](NC(=O)[C@H](CO)NC(=O)[C@H](Cc1ccc(O)cc1)NC(=O)[C@H](CC(=O)O)NC(=O)[C@H](CO)NC(=O)[C@@H](NC(=O)[C@](C)(Cc1ccccc1F)NC(=O)[C@@H](NC(=O)CNC(=O)[C@H](CCC(N)=O)NC(=O)C(C)(C)NC(=O)[C@@H](N)Cc1ccc(O)cc1)[C@@H](C)O)[C@@H](C)O)[C@@H](C)CC)C(=O)N[C@@H](CCC(=O)O)C(=O)N[C@@H](Cc1ccc(O)cc1)C(=O)N[C@@H](CC(C)C)C(=O)N[C@@H](CC(C)C)C(=O)N[C@@H](CCC(=O)O)C(=O)N[C@H](C(=O)NCC(=O)N1CCC[C@H]1C(=O)N[C@@H](CO)C(=O)N[C@@H](CO)C(=O)NCC(=O)N[C@@H](CCC(N)=O)C(=O)N1CCC[C@H]1C(=O)N1CCC[C@H]1C(=O)NC1(C(=O)N[C@@H](CO)C(N)=O)CC1)[C@@H](C)O [Compound 34] (H-Y[Aib]QGT[αMePhe(2-F)]TSDYSI[αMeL]LDKK([AEEA-AEEA-γGlu-C20 diacid])AQ[Aib]AFIEYLLETGPSSGQPP[Ac3c]S-NH2; N-terminus assumed) | 3620.00% | 0.005 nM | 150.00% | 0.879 nM | 117.41% | 2.3 nM | 165.52% | 0.537 nM | 724.58% | 191.30% | 0.023 nM |
| CC[C@H](C)[C@H](NC(=O)[C@H](Cc1ccccc1)NC(=O)[C@H](C)NC(=O)C(C)(C)NC(=O)[C@H](CCC(N)=O)NC(=O)[C@H](C)NC(=O)[C@H](CCCCNC(=O)COCCOCCNC(=O)COCCOCCNC(=O)CC[C@H](NC(=O)CCCCCCCCCCCCCCCCCCC(=O)O)C(=O)O)NC(=O)[C@H](CCCCN)NC(=O)[C@H](CC(=O)O)NC(=O)[C@H](CC(C)C)NC(=O)[C@](C)(CC(C)C)NC(=O)[C@@H](NC(=O)[C@H](CO)NC(=O)[C@H](Cc1ccc(O)cc1)NC(=O)[C@H](CC(=O)O)NC(=O)[C@H](CO)NC(=O)[C@@H](NC(=O)[C@](C)(Cc1ccccc1)NC(=O)[C@@H](NC(=O)CNC(=O)[C@H](CCC(N)=O)NC(=O)C(C)(C)NC(=O)[C@@H](N)Cc1ccc(O)cc1)[C@@H](C)O)[C@@H](C)O)[C@@H](C)CC)C(=O)N[C@@H](CCC(=O)O)C(=O)N[C@@H](Cc1ccc(O)cc1)C(=O)N[C@@H](CC(C)C)C(=O)N[C@@H](CC(C)C)C(=O)N[C@@H](CCC(=O)O)C(=O)N[C@H](C(=O)NCC(=O)N1CCC[C@H]1C(=O)N[C@@H](CO)C(=O)N[C@@H](CO)C(=O)NCC(=O)N[C@@H](CCC(N)=O)C(=O)N1CCC[C@H]1C(=O)N1CCC[C@H]1C(=O)NC1(C(=O)N[C@@H](CO)C(N)=O)CC1)[C@@H](C)O [Compound 35] (H-Y[Aib]QGT[αMeF]TSDYSI[αMeL]LDKK([AEEA-AEEA-γGlu-C20 diacid])AQ[Aib]AFIEYLLETGPSSGQPP[Ac3c]S-NH2; N-terminus assumed) | 2262.50% | 0.008 nM | 65.52% | 0.346 nM | 298.27% | 6.01 nM | 63.28% | 1.96 nM | 198.52% | 200.00% | 0.022 nM |
| CC[C@H](C)[C@H](NC(=O)[C@H](Cc1ccccc1)NC(=O)[C@H](C)NC(=O)C(C)(C)NC(=O)[C@H](CCC(N)=O)NC(=O)[C@H](C)NC(=O)[C@H](CCCCNC(=O)COCCOCCNC(=O)COCCOCCNC(=O)CC[C@H](NC(=O)CCCCCCCCCCCCCCCCCCC(=O)O)C(=O)O)NC(=O)[C@H](CCCCN)NC(=O)[C@H](CC(=O)O)NC(=O)[C@H](CC(C)C)NC(=O)[C@](C)(CC(C)C)NC(=O)[C@@H](NC(=O)[C@H](CO)NC(=O)[C@H](Cc1ccc(O)cc1)NC(=O)[C@H](CC(=O)O)NC(=O)[C@H](CO)NC(=O)[C@@H](NC(=O)[C@](C)(Cc1ccccc1)NC(=O)[C@@H](NC(=O)CNC(=O)[C@H](CCC(N)=O)NC(=O)C(C)(C)NC(=O)[C@@H](N)Cc1ccc(O)cc1)[C@@H](C)O)[C@@H](C)O)[C@@H](C)CC)C(=O)N[C@@H](CCC(=O)O)C(=O)N[C@@H](Cc1ccccc1)C(=O)N[C@@H](CC(C)C)C(=O)N[C@@H](CC(C)C)C(=O)N[C@@H](CCC(=O)O)C(=O)NCC(=O)N[C@@H](CCCNC(=N)N)C(=O)N1CCC[C@H]1C(=O)N[C@@H](CO)C(=O)N[C@@H](CO)C(=O)NC(C)(C)C(=O)N[C@@H](Cc1c[nH]cn1)C(=O)N1CCC[C@H]1C(=O)N1CCC[C@H]1C(=O)N1CCC[C@H]1C(=O)N[C@@H](CO)C(N)=O [Compound 37] (H-Y[Aib]QGT[αMeF]TSDYSI[αMeL]LDKK([AEEA-AEEA-γGlu-C20 diacid])AQ[Aib]AFIEFLLEGRPSS[Aib]HPPPS-NH2; N-terminus assumed) | 1206.67% | 0.015 nM | 69.51% | 0.176 nM | 586.36% | 2.49 nM | 152.87% | 1.04 nM | 373.06% | 157.14% | – |
| CC[C@H](C)[C@H](NC(=O)[C@H](Cc1ccccc1)NC(=O)[C@H](C)NC(=O)C(C)(C)NC(=O)[C@H](CCC(N)=O)NC(=O)[C@H](C)NC(=O)[C@H](CCCCNC(=O)COCCOCCNC(=O)COCCOCCNC(=O)CC[C@H](NC(=O)CCCCCCCCCCCCCCCCCCC(=O)O)C(=O)O)NC(=O)[C@H](CCCCN)NC(=O)[C@H](CC(=O)O)NC(=O)[C@H](CC(C)C)NC(=O)[C@](C)(CC(C)C)NC(=O)[C@@H](NC(=O)[C@H](CO)NC(=O)[C@H](Cc1ccc(O)cc1)NC(=O)[C@H](CC(=O)O)NC(=O)[C@H](CO)NC(=O)[C@@H](NC(=O)[C@](C)(Cc1ccccc1F)NC(=O)[C@@H](NC(=O)CNC(=O)[C@H](CCC(N)=O)NC(=O)C(C)(C)NC(=O)[C@@H](N)Cc1ccc(O)cc1)[C@@H](C)O)[C@@H](C)O)[C@@H](C)CC)C(=O)N[C@@H](CCC(=O)O)C(=O)N[C@@H](Cc1ccccc1)C(=O)N[C@@H](CC(C)C)C(=O)N[C@@H](CC(C)C)C(=O)N[C@@H](CCC(=O)O)C(=O)N[C@H](C(=O)N[C@@H](CCCNC(=N)N)C(=O)N1CCC[C@H]1C(=O)N[C@@H](CO)C(=O)N[C@@H](CO)C(=O)NC(C)(C)C(=O)N[C@@H](Cc1c[nH]cn1)C(=O)N1CCC[C@H]1C(=O)N1CCC[C@H]1C(=O)N1CCC[C@H]1C(=O)N[C@@H](CO)C(N)=O)[C@@H](C)O [Compound 39] (H-Y[Aib]QGT[αMePhe(2-F)]TSDYSI[αMeL]LDKK([AEEA-AEEA-γGlu-C20 diacid])AQ[Aib]AFIEFLLETRPSS[Aib]HPPPS-NH2) | 1206.67% | 0.015 nM | 37.25% | 0.843 nM | 122.42% | 2.05 nM | 185.83% | 2.03 nM | 191.77% | 56.41% | – |
